Reference: patent US9297017B2, “Methods and compositions for targeted protein degradation” (University of Washington, priority 2010, dated 2016)
“Also recorded” adds a separate entry of the source.

Experiments:
[1] = biological target: T1, COI1-JAZ6 complex (Arabidopsis thaliana, UniProt O04197+Q9C9E3); experiment: Competition binding with 100 nM 3H-coronatine; settings: 100 nM 3H-COR, COI1-JAZ6 complex; read-out: Inhibition constant (Ki), competition with 3H-coronatine
T1 construct: Full-length Arabidopsis thaliana COI1 and ASK1 were co-expressed; Full-length JAZ substrate proteins were expressed as 6×His-fusion proteins in Escherichia coli; GST (cleaved yes); 6xHis; made in house; host or cells: Hi5 insect cells (COI1/ASK1); Escherichia coli (JAZ6)
T1 sequence (O04197 1-592): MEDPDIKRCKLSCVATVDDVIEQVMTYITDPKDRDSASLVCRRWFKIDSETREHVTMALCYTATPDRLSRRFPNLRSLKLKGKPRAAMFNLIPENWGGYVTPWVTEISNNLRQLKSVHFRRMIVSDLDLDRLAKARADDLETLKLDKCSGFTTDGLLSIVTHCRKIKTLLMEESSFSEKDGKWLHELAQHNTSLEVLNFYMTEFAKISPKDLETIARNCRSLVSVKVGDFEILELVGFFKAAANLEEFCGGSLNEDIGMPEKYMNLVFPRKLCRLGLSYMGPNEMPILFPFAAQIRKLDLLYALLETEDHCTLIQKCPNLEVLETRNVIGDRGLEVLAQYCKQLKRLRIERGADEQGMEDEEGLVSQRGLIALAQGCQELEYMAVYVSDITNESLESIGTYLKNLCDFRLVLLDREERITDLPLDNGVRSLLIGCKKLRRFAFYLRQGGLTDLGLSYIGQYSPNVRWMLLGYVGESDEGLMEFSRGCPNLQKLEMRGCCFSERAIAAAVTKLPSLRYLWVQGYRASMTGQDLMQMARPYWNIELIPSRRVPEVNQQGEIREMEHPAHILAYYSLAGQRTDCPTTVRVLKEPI
T1 sequence (Q39255 1-160 partner): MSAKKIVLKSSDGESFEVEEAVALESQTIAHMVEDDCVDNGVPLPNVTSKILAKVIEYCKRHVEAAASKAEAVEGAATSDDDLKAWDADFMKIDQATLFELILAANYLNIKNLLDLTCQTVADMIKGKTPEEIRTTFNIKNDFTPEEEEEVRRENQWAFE
T1 sequence (Q9C9E3 1-269): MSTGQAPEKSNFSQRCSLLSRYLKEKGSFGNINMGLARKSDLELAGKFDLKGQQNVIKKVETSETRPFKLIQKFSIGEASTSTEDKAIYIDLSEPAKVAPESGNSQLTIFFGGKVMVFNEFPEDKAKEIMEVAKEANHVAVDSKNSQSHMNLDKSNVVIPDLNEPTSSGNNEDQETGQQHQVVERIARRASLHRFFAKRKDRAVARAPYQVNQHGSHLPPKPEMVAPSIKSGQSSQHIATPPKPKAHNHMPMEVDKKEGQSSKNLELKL
Text: (^3H)-labeled coronatine was synthesized by Amersham. Full-length Arabidopsis thaliana COI1 and ASK1 were co-expressed as a glutathione S-transferase (GST) fusion protein and an untagged protein, respectively, in Hi5 suspension insect cells. The COI1/ASK1 complex was isolated from the soluble cell lysate by glutathione affinity chromatography. After on-column tag cleavage by tobacco etch virus protease, the complex was further purified by anion exchange and gel filtration chromatography and concentrated by ultrafiltration to 12-18 mg ml^−1. Full-length JAZ substrate proteins were expressed as 6×His-fusion proteins in Escherichia coli and purified on Ni-NTA resin with subsequent dialysis into 20 mM Tris-HCl, pH 8.0, 200 mM NaCl, and 10% glycerol.
Radioligand binding was assayed on purified proteins, with 2 mg COI1/ASK1 complex and JAZ proteins at a 1:3 molar ratio. Reactions were prepared in […] final volume and in a binding buffer containing 20 mM Tris-HCl 200 mM NaCl, and 10% glycerol. Saturation binding experiments were conducted with serial dilutions of 3H-coronatine in binding buffer. Nonspecific binding was determined in the presence of […] coronatine. Competition binding experiments were conducted with serial dilutions of JA-Ile in the presence of 100 nM ^3H coronatine with nonspecific binding determined in the presence of […] coronatine. Total binding was determined in the presence of vehicle only. Two-point binding experiments were performed in the presence of 100 nM or 300 nM ^3H-coronatine with nonspecific binding determined in the presence of […] coronatine. Following incubation with mixing at 4° C., all samples were collected with a cell harvester (Brandel, Gaithersburg, Md.) on polyethyleneimine (Sigma)-treated filters. […] Saturation binding experiments were analyzed by nonlinear regression, competition binding experiments by nonlinear regression with Ki calculation as described previously (Cheng 1973), and concentration-response data by sigmoidal dose-response curve fitting, all using GraphPad Prism version 4.00 for MacOSX.

[2] = biological target: T2, COI1/JAZ1 co-receptor (Arabidopsis thaliana, UniProt O04197+Q9LMA8); experiment: Ligand-binding based reconstitution assay (inositol phosphate rescue) with dialyzed COI1/ASK1 and JAZ1; settings: for Effect of inositol phosphate on activity of the COI1/JAZ1 co-receptor (coronatine binding): dialyzed COI1, JAZ1, 1 μM inositol phosphate
T2 construct: Full-length Arabidopsis thaliana COI1 and ASK1 were co-expressed; Full-length JAZ substrate proteins were expressed as 6×His-fusion proteins in Escherichia coli; GST (cleaved yes); 6xHis; made in house; host or cells: Hi5 insect cells (COI1/ASK1); Escherichia coli (JAZ1)
T2 sequence (O04197 1-592): T1 sequence (O04197 1-592)
T2 sequence (Q39255 1-160 partner): T1 sequence (Q39255 1-160 partner)
T2 sequence (Q9LMA8 1-253): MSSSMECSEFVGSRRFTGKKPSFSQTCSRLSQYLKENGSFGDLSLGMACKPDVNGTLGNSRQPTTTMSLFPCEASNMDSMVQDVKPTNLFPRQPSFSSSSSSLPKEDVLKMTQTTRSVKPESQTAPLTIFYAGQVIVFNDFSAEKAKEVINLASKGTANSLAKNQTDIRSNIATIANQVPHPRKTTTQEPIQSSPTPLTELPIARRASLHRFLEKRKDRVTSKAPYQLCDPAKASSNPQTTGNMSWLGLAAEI
Procedure: (§1) Radioligand binding was assayed on purified proteins, with 2 mg COI1/ASK1 complex and JAZ proteins at a 1:3 molar ratio. Reactions were prepared in […] final volume and in a binding buffer containing 20 mM Tris-HCl 200 mM NaCl, and 10% glycerol. Saturation binding experiments were conducted with serial dilutions of 3H-coronatine in binding buffer. Nonspecific binding was determined in the presence of […] coronatine. Competition binding experiments were conducted with serial dilutions of JA-Ile in the presence of 100 nM ^3H coronatine with nonspecific binding determined in the presence of […] coronatine. Total binding was determined in the presence of vehicle only. Two-point binding experiments were performed in the presence of 100 nM or 300 nM ^3H-coronatine with nonspecific binding determined in the presence of […] coronatine. Following incubation with mixing at 4° C., all samples were collected with a cell harvester (Brandel, Gaithersburg, Md.) on polyethyleneimine (Sigma)-treated filters. Samples were incubated in liquid scintillation fluid for >1 hour before counting with a Packard Tri-Carb 2200 CA liquid scintillation analyzer (Packard Instrument Co.). Saturation binding experiments were analyzed by nonlinear regression, competition binding experiments by nonlinear regression with Ki calculation as described previously (Cheng 1973), and concentration-response data by sigmoidal dose-response curve fitting, all using GraphPad Prism version 4.00 for MacOSX.
To assess the functional role of Ins(1,2,4,5,6)P5 in the COI1/JAZ1 co-receptor, a protocol was developed for stripping the co-purified InsP5 from COI1 without denaturing the protein. Briefly, proteins were mixed with 10% glycerol and incubated in 2 M ammonium phosphate, 100 mM Bis-Tris propane, pH 7.0, 200 mM NaCl, and 10% glycerol at 4° C. for >24 hours with a minimum of 3× buffer changes at 100× sample volume. Samples were then transferred to 20 mM Tris-HCl, pH 8.0, 200 mM NaCl, and 10% glycerol at 4° C. for >24 hours with a minimum of three buffer changes at 100× sample volume. Inositol phosphate rescue experiments were conducted according to the radioligand binding assays described above in the presence of 300 nM ^3H-coronatine with nonspecific binding determined in the presence of 300 μM coronatine.
The resulting COI1/ASK1 complex was tested in a ligand-binding based reconstitution assay. […] From this reconstitution result, it was concluded that Ins(1,2,4,5,6)P5 binding is crucial for the jasmonate coreceptor to perceive the hormone with high sensitivity.

[3] = biological target: T2, COI1/JAZ1 co-receptor; experiment: as above; settings: 100 nM 3H-coronatine, read-out: EC50, rescue of 3H-coronatine binding to dialyzed COI1/ASK1 in the presence of JAZ1
[4] = biological target: T3, COI1 (Arabidopsis thaliana, UniProt O04197); experiment: Ligand binding assay with synthetic JAZ peptides replacing recombinant JAZ1 (coronatine binding to COI1/ASK1); settings: 300 nM coronatine
T3 construct: Full-length Arabidopsis thaliana COI1 and ASK1 were co-expressed; GST (cleaved yes); made in house; host or cells: Hi5 insect cells (COI1/ASK1); JAZ peptides synthetic
T3 sequence (O04197 1-592): T1 sequence (O04197 1-592)
T3 sequence (Q39255 1-160 partner): T1 sequence (Q39255 1-160 partner)
Procedure: as §1
Previous studies have shown that the highly conserved PY sequence at the C-terminal end of the Jas motif plays a role in JAZ localization and stability in vivo, but that the sequence was not necessary for ligand-dependent COI1-JAZ interaction. This was confirmed by an experiment showing that truncation of the PY motif in JAZ1 had little effect on in vitro ligand binding activity (FIG. 3). […]
Various derivatives of the JAZ1 degron sequence, as well as derivatives of the JAZ6 and JAZ7 degron sequences, were analyzed for their ability to bind COI1 with high affinity in the presence of coronatine.

| Molecule | Effect of inositol phosphate on activity of the COI1/JAZ1 co-receptor (coronatine binding) [2] | Binding of peptide to COI1 in the presence of coronatine [4] | further results |
| --- | --- | --- | --- |
| CCC=CC[C@H]1C(=O)CC[C@@H]1CC(=O)N[C@H](C(=O)O)[C@@H](C)CC [(3R,7R)-JA-Ile] | – | – | Ki [1]: 18000 ± 19000 nM |
| CC/C=C\C[C@@H]1C(=O)CC[C@@H]1CC(=O)N[C@H](C(=O)O)[C@@H](C)CC [(3R,7S)-JA-Ile, (3R,7S)-jasmonyl-L-isoleucine] | – | – | Ki [1]: 1800 ± 600 nM |
| O=P(O)(O)OC1C(O)C(OP(=O)(O)O)C(OP(=O)(O)O)C(OP(=O)(O)O)C1OP(=O)(O)O (stereo not drawn) [Ins(1,2,4,5,6)P5, inositol-1,2,4,5,6-pentakisphosphate] | rescued the interaction in a dose-dependent manner | – | Effect of inositol phosphate on activity of the COI1/JAZ1 co-receptor (coronatine binding) ([2]; listed as InsP5): rescues binding; Effect of exogenous inositol phosphate on untreated COI1/JAZ1 co-receptor activity ([2]; untreated (not dialyzed) COI1, JAZ1, 1 μM): did not significantly change its activity; EC50 [3]: 27 nM |
| O=P(O)(O)OC1C(OP(=O)(O)O)C(OP(=O)(O)O)C(OP(=O)(O)O)C(OP(=O)(O)O)C1OP(=O)(O)O (stereo not drawn) [InsP6, inositol hexakisphosphate] | not favorable for activity; also recorded: significantly less efficacious | – | – |
| O=P(O)(O)O[C@H]1[C@H](OP(=O)(O)O)[C@@H](OP(=O)(O)O)[C@@H](O)[C@@H](O)[C@@H]1OP(=O)(O)O [inositol-1,4,5,6-tetrakisphosphate] | supports the activity | – | – |
| O=P(O)(O)O[C@@H]1[C@H](O)[C@H](O)[C@@H](OP(=O)(O)O)[C@H](OP(=O)(O)O)[C@H]1O [inositol-1,4,5-trisphosphate] | does not | – | – |
| JAZ1 +4 extension: LPIARRASLHRFLEKRKDRV (listed as Arabidopsis thaliana) | – | much higher affinity | – |
| JAZ1 degron: RRASLHRFLEKRKDRVTSKAPY (R205-Y226 of JAZ1) (listed as Arabidopsis thaliana) | – | did not bind to COI1 with high affinity | – |
| JAZ1-extension +5+PY: ELPIARRASLHRFLEKRKDRVTSKAPY (listed as Arabidopsis thaliana) | – | significant binding | – |
